Test results taken from patent publication US20060204443A1, “Methods for tumor treatment using dendrimer conjugates” (The Government of the USA as represented by the Secretary …, priority 2005, published 2006).
Entries after “also recorded” stand apart in the source; their conditions may differ.

Tests used:
[1] = system: deep lymphatic system (lymph nodes, thoracic duct); assay: Whole-body dynamic 3D-micro-MRL after intracutaneous injection, normal mice (Examples 2, 3); format: in vivo; settings: for Number of Mice in Which the Thoracic Duct was Visualized/Number of Mice Examined: Normal Mice, 0.1 μmolGd intracutaneously
Method: The mice were anesthetized with 1.15 mg sodium pentobarbital (Dainabot, Osaka, Japan) by intraperitoneal injection, and then injected intracutaneously with 0.1 μmolGd of PAMAM-G8, DAB-G5, PAMAM-G4, Gadomer-17, or GPDM into four middle phalanges in all four extremities. Dynamic micro-MR images were obtained using a 1.5-Tesla superconductive magnet unit (Signa LX, General Electric Medical System, Milwaukee, Wis.) with a round birdcage type coil of 3 cm diameter fixed by a custom-made coil holder. Four to eight female mice (7 weeks old, 18-21 g body weight) in each group were used and each contrast agent was prepared at least three separate times for these imaging studies. The mice were wrapped with gauze to stabilize their body temperature and were placed at the center of the coils.
A 3D-fast spoiled gradient echo (3D-fastSPGR (efgre3d package; Signa Horizon, GE); repetition time/echo time 28.5/7.9 msec; inversion time 65 msec; 31.2 kHz, flip angle 30°, four excitations; 40 slice-encoding steps; scan time 7 min 36 seconds) with chemical shift fat-suppression was used 10, 20, 30, and 45 min after injection of the contrast agents. The coronal images were reconstructed with 0.6-mm section thickness at every 0.3-mm. The field of view was 6×3 cm and the size of the matrix was 512×256. The intensities of the regions of interest (for example, a whole axillary lymph node, and the liver) were measured, and then the time-intensity curves analyzed. The data were expressed as the axillary lymph node-to-muscle and the axillary lymph node-to-liver ratios. The slice data were processed into 3D images using the MIP method with the same window and level (window 3500 and level 2300) (Advantage Windows, General Electric Medical System). Two board-certified radiologists separately read a set of stereo views of 3D-MRL for all studies, and estimated the visualization of the thoracic duct. After imaging, the mice were sacrificed by carbon dioxide inhalation.
In this example, the PAMAM-G8 contrast agent is compared to GPDM. PAMAM-G8 was prepared as described in Example 2, and GPDM was purchased (Schering AG, Berlin, Germany). Animal models, administration of the contrast agents, and 3D-micro-MRL were as described in Example 2.

[2] = system: Draining Lymph Nodes (LNs) from the Normal Breast Tissue; assay: Dynamic micro-MR mammo-lymphangiography after injection into normal mammary gland (Example 1); format: in vivo, mice; settings: athymic nu/nu mice, 0.15 μmol Gd into the mammary gland; GPDM imaged at 12, 24, 36 min, then PAMAM-G6
Method: Mice were anesthetized with 1.15 mg sodium pentobarbital (Dainabot, Osaka, Japan), and then injected with 0.15-0.24 μmol Gd/5-8 μL of the PAMAM-G6 contrast agent into normal mammary glands or mammary tissue surrounding a tumor (peritumorally). Dynamic micro-MR images were obtained using a 1.5-Tesla superconductive magnet unit (Signa LX, General Electric Medical System, Milwaukee, Wis.) with a birdcage type coil of 3 cm diameter fixed by a custom made coil holder. Single and double “breast coils” used for imaging breasts in humans are commercially available, for example, from GE Medical Systems (Milwaukee, Wis.) and are routinely available in outpatient MRI centers. The mice were wrapped with gauze to stabilize their body temperature and were placed at the center of the coils.
In order to evaluate the lymphatic drainage from the normal mammary gland of either Balb/c mice (n=5) or athymic nu/nu mice (n=5), 3D-fast spoiled gradient echo (3D-fastSPGR (efgre3d package; Signa Horizon, GE); repetition time/echo time 19.2/7.2 msec; inversion time 47 msec; 31.2 kHz, flip angle 30°, 4 excitations; 36 slice encoding steps; scan time 4 min 49 seconds) with chemical shift fat-suppression was used 6, 12, 18, 24, 30, 36, 42, and 48 min after injection of the contrast agent. The coronal images were reconstructed with 0.6-mm section thickness every 0.3-mm. The field of view was 8×4 cm and the size of the matrix was 512×256. The slice data were processed into 3D images using the maximum intensity projection (MIP) method with the same window and level (window 3500 and level 2100) (Advantage Windows, General Electric Medical System). After imaging, the mice were sacrificed by carbon dioxide inhalation.
Athymic nu/nu mice (n=4) were anesthetized and injected with 0.15 μmol Gd of GPDM into the mammary gland, and images were taken 12, 24, and 36 min after injection. Following these three images, these mice were subsequently injected with 0.15 μmol Gd of PAMAM-G6 contrast agent in the mammary gland, and images were taken at 12 and 24 min post-injection of the PAMAM-G6 contrast agent (at 48 and 60 min post-injection of GPDM).

[3] = Tokumitsu et al. 2000; cited from earlier work
[4] = system: axillary lymph nodes and their lymphatic vessels; assay: Dynamic 3D-MR lymphangiography, effect of contrast agent size (Example 4); format: in vivo, athymic nu/nu mice
Method: Mice were anesthetized with 1.15 mg sodium pentobarbital (Dainabot, Osaka, Japan) by intraperitoneal injection. Then 0.15 μmolGd/5 μL of all nano-size contrast agents or 0.45 μmolGd/5 μL of Gd-[DTPA]-dimeglumine were injected into normal mammary glands or mammary tissue surrounding a tumor. Dynamic MR images were obtained using a 1.5-Tesla superconductive magnet unit (Signa LX, General Electric Medical System, Milwaukee, Wis.) with a birdcage type coil of 3 cm diameter fixed by a custom-made coil holder. The mice were wrapped with gauze to conserve their body temperature and were placed at the center of the coils.
In order to evaluate the effect of contrast agent molecular size on the ability to visualize the lymphatics and lymph nodes of athymic nu/nu mice, thirty five non-tumor bearing nu/nu mice were divided into seven groups (n=5). The mice were evaluated with 3D-fast spoiled gradient echo (3D-fastSPGR (efgre3d package; Signa Horizon, GE); repetition time/echo time 19.2/7.2 msec; inversion time 47 msec; bandwidth 31.2 kHz, flip angle 30°, 4 excitations; 36 slice encoding steps; scan time 4 minutes 49 seconds) with chemical shift fat-suppression at 6, 12, 18, 24, 30, and 36 minutes post-injection of each contrast agent. The coronal images were reconstructed with 0.6-mm section thickness every 0.3-mm. The field of view was 8×4 cm and the size of the matrix was 512×256. The slice data were processed into 3D images using the maximum intensity projection (MIP) method with the same window and level (window 3500 and level 2100) (Advantage Windows, General Electric Medical System). The enhancement ratio was calculated by taking the average signal intensity in the axillary lymph node and dividing it by the signal intensity in the adjacent muscle.

[5] = system: axillary lymph nodes and their lymphatic vessels; assay: as above; format: in vivo, athymic nu/nu mice; settings: triple dose, 3 min post-injection (data not shown)
[6] = mouse, in vivo, listed as Gd-DTPA

Structure (SMILES): CNC[C@H](O)[C@@H](O)[C@H](O)[C@H](O)CO.CNC[C@H](O)[C@@H](O)[C@H](O)[C@H](O)CO.O=C([O-])CN(CCN(CC(=O)[O-])CC(=O)O)CCN(CC(=O)[O-])CC(=O)O.[Gd+3] [GPDM, gadopentetate dimeglumine, reference compound]
- Image enhancement after 45 minutes ([1]; Example 2, FIG. 10B): Virtually no image enhancement
- Visualization of deep lymph nodes ([1]; Example 2, normal mice, 10-45 min after injection): did not allow most of the lymph nodes to be visualized even at early times
- Visualization of deep lymph nodes ([1]; Example 3, FIG. 15): not with GPDM
- Number of Mice in Which the Thoracic Duct was Visualized/Number of Mice Examined ([1]; 10 min): 2/5
- Number of Mice in Which the Thoracic Duct was Visualized/Number of Mice Examined ([1]; 20 min): 0/5
- Number of Mice in Which the Thoracic Duct was Visualized/Number of Mice Examined ([1]; 30 min): 0/5
- Number of Mice in Which the Thoracic Duct was Visualized/Number of Mice Examined ([1]; 45 min): 0/5
- Visualization of draining lymph nodes and lymphatic vessels (FIG. 5) [2]: not well visualized
- Clearance from the body [3]: clear too rapidly from the body
- Visualization of axillary lymph nodes and their lymphatic vessels ([4]; 6-36 minutes post-injection into mammary gland): failed to opacify either the lymph nodes or the lymphatic vessels
- Signal intensity of adjacent muscle in comparison to G6 and G8 [4, 6]: significantly higher than those measured with G6 and G8; also recorded: higher signal in the adjacent muscle
- Signal intensity within the axillary lymph nodes in comparison to G6 and G8 [4, 6]: lower signal intensities; also recorded: significantly lower signal
- Contrast between target lymph node and surrounding tissue [5]: did not help to achieve good enough contrast
